# Assays:
# Serratia marcescens = assay: Antibacterial activity against Serratia marcescens; assay type: functional
# Klebsiella pneumoniae = assay: Antibacterial activity against Klebsiella pneumoniae; assay type: functional
# Streptococcus pyogenes = assay: Antibacterial activity against Streptococcus hemolyticus; assay type: functional
# Salmonella sp. = assay: Antibacterial activity against Salmonella sp.; assay type: functional
# Pasteurella multocida = assay: Antibacterial activity against Pasteurella multocida; assay type: functional
# Providencia rettgeri = assay: Antibacterial activity against Proteus rettgeri; assay type: functional
# Haemophilus = assay: Antibacterial activity against Haemophilus sp.; assay type: functional
# Herpesviridae sp. = assay: Antiviral activity against Herpes simplex virus infected in mouse assessed as mouse survival at 400 mg/kg, sc for 28 days; assay type: functional; settings: 672 h
# Morganella morganii = assay: Antibacterial activity against Proteus morgana; assay type: functional
# Cryptococcus neoformans = assay: Antimicrobial activity against Cryptococcus neoformans; assay type: functional
# [1] = system: Colletotrichum gloeosporioides; assay: Antimicrobial activity against Glomerella cingulata; assay type: functional
# Candida albicans [2] = assay: Antifungal activity against Candida albicans; assay type: functional
# Pyricularia oryzae = assay: Antimicrobial activity against Pyricularia orizae; assay type: functional
# Saccharomyces cerevisiae [3] = assay: Antimicrobial activity against Saccharomyces cerevisiae; assay type: functional
# Bacillus subtilis [4] = assay: Antibacterial activity against Bacillus subtilis; assay type: functional
# Proteus vulgaris = assay: Antibacterial activity against Proteus vulgaris; assay type: functional
# Trichophyton rubrum = assay: Antifungal activity against Trichophyton rubrum; assay type: functional
# [5] = system: Trichophyton mentagrophytes; assay: Antimicrobial activity against Trichophyton mentagrophytes; assay type: functional
# [6] = molecular target: C-X-C chemokine receptor type 4 (Rattus norvegicus) (UniProt O08565); assay: Antagonist activity at CXCR4 in rat GH4C1 cells assessed as inhibition of CXCL12-induced DNA synthesis at 10 uM after 72 hrs by BrdU incorporation assay; assay type: functional, cell-based
# [7] = molecular target: Sodium-dependent dopamine transporter (Homo sapiens) (UniProt Q01959); assay: Inhibition of dopamine transporter (unknown origin) at 10 uM
# 3T3-L1 = assay: Cytotoxicity against mouse 3T3L1 cells assessed as decrease in cell viability; assay type: cell-based
# HeLa = assay: Cytotoxicity against human HeLa cells assessed as decrease in cell viability; assay type: functional, cell-based
# [8] = molecular target: C-X-C chemokine receptor type 4 (Rattus norvegicus) (UniProt O08565); assay: Antagonist activity at CXCR4 in rat GH4C1 cells assessed as inhibition of CXCL12-induced cell migration at 0.1 uM after 72 hrs by BrdU incorporation assay; assay type: functional, cell-based
# C6 = assay: Cytotoxicity against rat C6 cells assessed as decrease in cell viability; assay type: functional, cell-based
# [9] = molecular target: Mu-type opioid receptor (Homo sapiens) (UniProt P35372); assay: Inhibition of mu opioid receptor (unknown origin) at 10 uM
# [10] = molecular target: Sodium-dependent serotonin transporter (Homo sapiens) (UniProt P31645); assay: Inhibition of serotonin transporter (unknown origin) at 10 uM
# [11] = molecular target: Sodium-dependent noradrenaline transporter (Homo sapiens) (UniProt P23975); assay: Inhibition of norepinephrine transporter (unknown origin) at 10 uM
# L5178Y = assay: Cytotoxicity against mouse L5178Y cells by MTT assay; assay type: functional, cell-based
# HeLa S3 = assay: Cytotoxicity against human HeLaS3 cells; assay type: functional, cell-based
# [12] = system: Auxenochlorella pyrenoidosa; assay: Algicidal activity against Chlorella pyrenoidosa IAM C-212; assay type: functional
# Daucus carota = assay: Herbicidal activity against Daucus carota; assay type: functional
# [13] = system: Chlamydomonas reinhardtii; assay: Algicidal activity against Chlamydomonas reinhardtii IAM C-238; assay type: functional
# Nostoc commune = assay: Growth inhibition of Nostoc commune NIES 24; assay type: functional
# Armoracia rusticana = assay: Herbicidal activity against Armoracia rusticana; assay type: functional
# Catharanthus roseus = assay: Herbicidal activity against Catharanthus roseus; assay type: functional
# Escherichia coli [14] = assay: Antibacterial activity against Escherichia coli; assay type: functional
# Dunaliella tertiolecta = assay: Algicidal activity against Dunaliella tertiolecta ATCC 30929; assay type: functional
# Anabaena cylindrica = assay: Growth inhibition of Anabaena cylindrica NIES 19; assay type: functional
# Dunaliella salina = assay: Algicidal activity against Dunaliella salina; assay type: functional
# [Chlorella] fusca = Algicidal activity against Chlorella fusca IAM C-28; assay type: functional; settings: Scenedesmus fuscus
# Trichormus variabilis = assay: Growth inhibition of Anabaena variabilis NIES 23; assay type: functional
# Ehrlich [15] = assay: Antitumor activity against mouse Ehrlich carcinoma cells xenografted in white mouse assessed as growth inhibition at 0.2 mg/kg, ip for 7 days; assay type: functional; settings: 168 h, read-out: GI
# [16] = system: Clavibacter michiganensis; assay: Antibacterial activity against Clavibacter michiganensis; assay type: functional
# Mycobacterium = assay: Antibacterial activity against Mycobacterium B5; assay type: functional
# [17] = system: Xanthomonas citri pv. malvacearum; assay: Antibacterial activity against Xanthomonas malvacearum; assay type: functional
# KB = assay: Growth inhibition of human KB cells; assay type: functional, cell-based
# [18] = Inhibition of protein kinase A (unknown origin); parameters: species or system Homo sapiens
# Escherichia coli [19] = assay: Antibacterial activity against Escherichia coli assessed as inhibition zone at 50 ug/disk; assay type: functional; settings: read-out: IZ
# Ruegeria atlantica = assay: […] activity against Ruegeria atlantica assessed as inhibition zone at 50 ug/disk; assay type: functional; settings: read-out: IZ
# Mucor hiemalis = assay: Antifungal activity against Mucor hiemalis assessed as inhibition zone at 50 ug/disk; assay type: functional; settings: read-out: IZ
# V79 = assay: Cytotoxicity against chinese hamster V79 cells; assay type: cell-based; settings: Cricetulus griseus
# Staphylococcus aureus [20] = assay: Antibacterial activity against Staphylococcus aureus assessed as inhibition zone at 50 ug/disk; assay type: functional; settings: read-out: IZ
# Saccharomyces cerevisiae [21] = assay: Antifungal activity against Saccharomyces cerevisiae assessed as inhibition zone at 50 ug/disk; assay type: functional; settings: read-out: IZ
# Ehrlich [22] = assay: Antitumor activity against mouse Ehrlich carcinoma cells xenografted in white mouse assessed as growth inhibition at 20 mg/kg, ip for 7 days; assay type: functional; settings: 168 h, read-out: GI
# Escherichia coli [23] = assay: Antibacterial activity against Escherichia coli ATCC 10536 after 24 hrs by serial dilution method; assay type: functional; settings: ATCC 10536, 24 h
# Bacillus subtilis [24] = assay: Antibacterial activity against Bacillus subtilis ATCC 6051 after 24 hrs by serial dilution method; assay type: functional; settings: ATCC 6051, 24 h
# Pseudomonas aeruginosa = assay: Antibacterial activity against Pseudomonas aeruginosa ATCC 10145 after 24 hrs by serial dilution method; assay type: functional; settings: ATCC 10145, 24 h
# Staphylococcus aureus [25] = assay: Antibacterial activity against Staphylococcus aureus ATCC 6538 after 24 hrs by serial dilution method; assay type: functional; settings: ATCC 6538, 24 h
# Micrococcus luteus = assay: Antibacterial activity against Micrococcus luteus ATCC 9341 after 24 hrs by serial dilution method; assay type: functional; settings: ATCC 9341, 24 h
# Candida albicans [26] = assay: Antifungal activity against Candida albicans assessed as inhibition zone at 120 ug/disk; assay type: functional; settings: read-out: IZ
# [27] = system: Mycobacterium tuberculosis; assay: Antibacterial activity against Mycobacterium tuberculosis H37Rv; assay type: functional
# Bacillus subtilis [28] = assay: […] activity against Bacillus subtilis assessed as inhibition zone at 120 ug/disk; assay type: functional; settings: read-out: IZ
# P388 = assay: Cytotoxicity against mouse P388 cells; assay type: functional, cell-based
# A549 = assay: Cytotoxicity against human A549 cells by MTT assay; assay type: functional, cell-based
# HL-60 = assay: Cytotoxicity against human HL60 cells by MTT assay; assay type: functional, cell-based
# MCF7 = assay: Cytotoxicity against human MCF7 cells by MTT assay; assay type: functional, cell-based
# SW480 = assay: Cytotoxicity against human SW480 cells by MTT assay; assay type: functional, cell-based
# SMMC-7721 = assay: Cytotoxicity against human SMMC7721 cells by MTT assay; assay type: functional, cell-based
# Chain of C-X-C chemokine receptor type 4 (Rattus norvegicus) (O08565 whole entry): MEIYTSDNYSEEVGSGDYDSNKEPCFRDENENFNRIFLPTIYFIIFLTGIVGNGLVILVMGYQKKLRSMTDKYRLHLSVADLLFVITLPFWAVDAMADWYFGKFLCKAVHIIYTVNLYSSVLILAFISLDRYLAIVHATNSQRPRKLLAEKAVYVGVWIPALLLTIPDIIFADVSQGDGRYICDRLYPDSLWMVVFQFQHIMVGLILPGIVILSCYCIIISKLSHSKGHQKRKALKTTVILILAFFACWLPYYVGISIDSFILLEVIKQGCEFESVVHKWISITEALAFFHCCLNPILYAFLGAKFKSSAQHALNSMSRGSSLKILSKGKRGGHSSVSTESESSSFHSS
# Chain of Sodium-dependent noradrenaline transporter (Homo sapiens) (P23975 whole entry): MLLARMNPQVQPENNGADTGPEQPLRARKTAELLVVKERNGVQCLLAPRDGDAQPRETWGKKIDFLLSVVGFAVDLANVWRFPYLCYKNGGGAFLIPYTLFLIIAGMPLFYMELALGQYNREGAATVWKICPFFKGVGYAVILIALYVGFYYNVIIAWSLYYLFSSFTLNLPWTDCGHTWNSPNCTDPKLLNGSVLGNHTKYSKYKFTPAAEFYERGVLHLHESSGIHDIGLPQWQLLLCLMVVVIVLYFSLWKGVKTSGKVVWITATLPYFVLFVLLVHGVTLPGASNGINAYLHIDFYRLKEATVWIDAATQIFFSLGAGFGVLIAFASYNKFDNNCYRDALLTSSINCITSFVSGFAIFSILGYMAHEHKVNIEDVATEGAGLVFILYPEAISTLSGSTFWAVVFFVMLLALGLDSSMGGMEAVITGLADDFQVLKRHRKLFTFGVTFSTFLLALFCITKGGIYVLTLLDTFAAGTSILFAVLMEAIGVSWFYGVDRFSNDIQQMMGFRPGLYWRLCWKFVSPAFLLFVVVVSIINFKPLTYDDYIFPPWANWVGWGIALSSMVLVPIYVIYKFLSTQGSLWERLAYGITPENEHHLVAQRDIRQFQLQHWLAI
# Chain of Sodium-dependent serotonin transporter (Homo sapiens) (P31645 whole entry, looked up): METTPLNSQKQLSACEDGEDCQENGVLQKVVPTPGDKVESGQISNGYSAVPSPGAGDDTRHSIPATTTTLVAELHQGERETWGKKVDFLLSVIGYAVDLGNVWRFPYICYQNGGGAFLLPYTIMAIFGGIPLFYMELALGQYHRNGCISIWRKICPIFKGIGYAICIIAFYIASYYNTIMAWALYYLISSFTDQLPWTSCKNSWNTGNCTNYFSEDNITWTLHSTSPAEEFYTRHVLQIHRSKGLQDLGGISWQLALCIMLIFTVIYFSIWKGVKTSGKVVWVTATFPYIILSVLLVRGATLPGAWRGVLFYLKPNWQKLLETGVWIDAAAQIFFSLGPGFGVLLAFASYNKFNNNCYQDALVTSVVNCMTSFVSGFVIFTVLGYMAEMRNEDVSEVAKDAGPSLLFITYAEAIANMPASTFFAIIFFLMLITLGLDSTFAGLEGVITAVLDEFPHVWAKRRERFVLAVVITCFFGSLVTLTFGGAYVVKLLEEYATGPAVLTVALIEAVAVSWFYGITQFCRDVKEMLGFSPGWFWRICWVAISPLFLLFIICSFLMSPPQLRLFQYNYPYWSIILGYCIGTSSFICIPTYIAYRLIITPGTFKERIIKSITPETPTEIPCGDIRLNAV
# Chain of Mu-type opioid receptor (Homo sapiens) (P35372 whole entry): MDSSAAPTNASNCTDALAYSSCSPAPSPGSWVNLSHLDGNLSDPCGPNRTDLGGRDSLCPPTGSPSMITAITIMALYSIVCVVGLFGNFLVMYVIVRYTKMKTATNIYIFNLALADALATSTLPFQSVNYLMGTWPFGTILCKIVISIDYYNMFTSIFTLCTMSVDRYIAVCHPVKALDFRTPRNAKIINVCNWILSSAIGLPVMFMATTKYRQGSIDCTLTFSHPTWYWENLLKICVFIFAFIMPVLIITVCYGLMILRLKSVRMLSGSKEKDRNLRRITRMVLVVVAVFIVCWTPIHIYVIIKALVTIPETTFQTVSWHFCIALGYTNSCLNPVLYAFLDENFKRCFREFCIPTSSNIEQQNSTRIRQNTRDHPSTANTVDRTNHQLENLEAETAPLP
# Chain of Sodium-dependent dopamine transporter (Homo sapiens) (Q01959 whole entry): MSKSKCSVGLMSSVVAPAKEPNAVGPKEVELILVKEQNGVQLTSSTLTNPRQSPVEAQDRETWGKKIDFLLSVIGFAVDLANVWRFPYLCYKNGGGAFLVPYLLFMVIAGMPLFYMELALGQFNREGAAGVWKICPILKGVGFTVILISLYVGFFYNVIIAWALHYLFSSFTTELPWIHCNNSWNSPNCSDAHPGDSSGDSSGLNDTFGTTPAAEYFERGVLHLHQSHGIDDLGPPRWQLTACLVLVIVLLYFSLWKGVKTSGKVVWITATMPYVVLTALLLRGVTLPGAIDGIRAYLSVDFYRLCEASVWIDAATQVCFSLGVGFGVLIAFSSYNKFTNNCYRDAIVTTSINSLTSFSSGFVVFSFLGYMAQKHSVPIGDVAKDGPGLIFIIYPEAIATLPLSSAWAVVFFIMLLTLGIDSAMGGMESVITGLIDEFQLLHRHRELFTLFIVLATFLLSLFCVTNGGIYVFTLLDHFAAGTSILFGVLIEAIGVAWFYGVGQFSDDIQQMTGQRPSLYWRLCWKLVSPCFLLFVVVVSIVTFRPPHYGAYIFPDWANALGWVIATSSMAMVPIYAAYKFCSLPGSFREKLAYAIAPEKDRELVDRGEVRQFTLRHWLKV
compound,measurement,setting,value
CN1CN([C@H]2C[C@H](O)[C@@H](CO)O2)C(=O)NC1=O,MIC,Serratia marcescens,2 to 125 µg/mL
same,Activity,Klebsiella pneumoniae,2 to 125 µg/mL
same,Activity,Streptococcus pyogenes,2 to 125 µg/mL
same,Activity,Salmonella sp.,2 to 125 µg/mL
same,Activity,Pasteurella multocida,2 to 125 µg/mL
same,Activity,Providencia rettgeri,2 to 125 µg/mL
same,Activity,Haemophilus,2 to 125 µg/mL
same,survival at 400 mg/kg,Herpesviridae sp.,50%
same,Activity,Morganella morganii,2 to 125 µg/mL
C1SSCSSS1,MIC,Cryptococcus neoformans,6.25 µg/mL
same,MIC,[1],12.5 µg/mL
same,MIC,Candida albicans [2],6.25 µg/mL
same,MIC,Pyricularia oryzae,12.5 µg/mL
same,MIC,Saccharomyces cerevisiae [3],6.25 µg/mL
same,MIC,Bacillus subtilis [4],50 µg/mL
same,MIC,Proteus vulgaris,50 µg/mL
same,MIC,Trichophyton rubrum,3.12 µg/mL
same,MIC,[5],3.12 µg/mL
N=C(N)NCCCCCNc1noc(Cc2c[nH]c3cc(Br)ccc23)n1,inhibition,[6],50%
same,inhibition,[7],101%
same,IC50,3T3-L1,140 nM
same,IC50,HeLa,1500 nM
same,inhibition,[8],100%
same,IC50,C6,1500 nM
same,inhibition,[9],103%
same,inhibition,[10],22%
same,inhibition,[11],68%
Nc1nsc(C(=O)c2ccc(O)cc2)n1,IC50,L5178Y,410 nM
CN1CN2CCCN3CCCC(=N1)C32 (configuration not stated),IC50,HeLa S3,6.8 µg/mL
Cn1ncnc2c(=O)[nH]nc1-2,MIC,Serratia marcescens,7 µg/mL
same,MIC,[12],30 µM
same,MIC,Daucus carota,1 to 2 µg/mL
same,MIC,[13],30 µM
same,MIC,Nostoc commune,20 µM
same,MIC,Armoracia rusticana,1 to 2 µg/mL
same,MIC,Catharanthus roseus,1 to 2 µg/mL
same,MIC,Bacillus subtilis [4],6 µg/mL
same,MIC,Escherichia coli [14],8 µg/mL
same,MIC,Dunaliella tertiolecta,20 µM
same,MIC,Anabaena cylindrica,30 µM
same,MIC,Proteus vulgaris,12 µg/mL
same,MIC,Dunaliella salina,15 µM
same,MIC,[Chlorella] fusca,5 µM
same,MIC,Trichormus variabilis,30 µM
COc1nnc2nn(C)cnc1-2,inhibition in vivo at 0.2 mg/kg,Ehrlich [15],40%
same,MIC,[16],5000 to 50000 µg/mL
same,MIC,Mycobacterium,5000 to 50000 µg/mL
same,MIC,[17],5000 to 50000 µg/mL
Nc1ncn([C@@H]2O[C@H](CO)[C@@H](O)[C@H]2O)c(=O)n1 [AZACITIDINE],MIC,Escherichia coli [14],0.01 µg/mL
same,IC50,KB,0.23 µg/mL
COc1c(OC)c2c(c(CCN(C)C)c1SC)SSSSS2,IC50,[18],> 25 µg/mL
same,zone of inhibition at 50 µg/disc,Escherichia coli [19],14.2 to 30 mm
same,zone of inhibition at 50 µg/disc,Ruegeria atlantica,14.2 to 30 mm
same,zone of inhibition at 50 µg/disc,Mucor hiemalis,14.2 to 30 mm
same,IC50,V79,150 nM
same,zone of inhibition at 50 µg/disc,Staphylococcus aureus [20],14.2 to 30 mm
same,zone of inhibition at 50 µg/disc,Saccharomyces cerevisiae [21],14.2 to 30 mm
COc1nnc2n(C)ncnc1-2 [PSEUDOIODININE],inhibition in vivo at 20 mg/kg,Ehrlich [22],64%
N=C(N)NCCCCCNc1noc(Cc2c[nH]c3ccccc23)n1,inhibition,[7],96%
same,inhibition,[9],97%
same,inhibition,[10],16%
same,inhibition,[11],45%
Cc1cc(=O)n2nc(CC(=O)c3ccccc3)nc2[nH]1 [ESSRAMYCIN],MIC,Escherichia coli [23],1 to 8 µg/mL
same,MIC,Bacillus subtilis [24],1 to 8 µg/mL
same,MIC,Pseudomonas aeruginosa,1 to 8 µg/mL
same,MIC,Staphylococcus aureus [25],1 to 8 µg/mL
same,MIC,Micrococcus luteus,1 to 8 µg/mL
"COc1cc(C2(c3ncc[nH]3)SSSCC2O)ccc1O (single isomer, unassigned; (+))",zone of inhibition at 120 µg/disc,Candida albicans [26],4 mm
same,Activity,[27],10%
same,zone of inhibition at 120 µg/disc,Bacillus subtilis [28],4 mm
same,IC50,P388,21600 nM
CN1CC[C@]23c4ccccc4N[C@H]1[C@@]21CCN2CN4c5ccccc5[C@@]56CCN(C)[C@@]45N(c4c6cccc41)[C@@H]23,IC50,A549,> 40000 nM
same,IC50,HL-60,> 40000 nM
same,IC50,MCF7,> 40000 nM
same,IC50,SW480,> 40000 nM
same,IC50,SMMC-7721,> 40000 nM
C1SCSSCS1,MIC,Pyricularia oryzae,50 µg/mL

# Reference: ChEMBL document CHEMBL4265876, “Natural Products with Heteroatom-Rich Ring Systems” (J Nat Prod, 2017)
